Values after ≈ are worked out from the molar mass of the structure shown. Where a SMILES comes first, the peptide text is derived from it.
Tests used:
[1] = Therapeutic index, ratio of MHC for human RBC to geometric mean of peptide MIC for Streptococcus agalactiae H92; format: toxicity; conditions: human red blood cells (RBC), read-out: TI
[2] = Therapeutic index, ratio of MHC for human RBC to geometric mean of peptide MIC for Staphylococcus epidermidis ATCC 12228; format: toxicity; conditions: human red blood cells (RBC), read-out: TI
[3] = Therapeutic index, ratio of MHC for human RBC to geometric mean of peptide MIC for methicillin-resistant Staphylococcus aureus 43300; format: toxicity; conditions: human red blood cells (RBC), read-out: TI
[4] = Therapeutic index, ratio of MHC for human RBC to geometric mean of peptide MIC for Enterococcus faecalis ATCC 29212; format: toxicity; conditions: human red blood cells (RBC), read-out: TI
[5] = Therapeutic index, ratio of MHC for human RBC to geometric mean of peptide MIC for Staphylococcus aureus ATCC 29213; format: toxicity; conditions: human red blood cells (RBC), read-out: TI
[6] = Therapeutic index, ratio of MHC for human RBC to geometric mean of peptide MIC for Staphylococcus aureus 11011; format: toxicity; conditions: human red blood cells (RBC), read-out: TI
[7] = Therapeutic index, ratio of MHC for human RBC to geometric mean of peptide MIC for Salmonella pullorum 7913; format: toxicity; conditions: human red blood cells (RBC), read-out: TI
[8] = Therapeutic index, ratio of MHC for human RBC to geometric mean of peptide MIC for Salmonella typhimurium 7731; format: toxicity; conditions: human red blood cells (RBC), read-out: TI
[9] = Therapeutic index, ratio of MHC for human RBC to geometric mean of peptide MIC for Salmonella choleraesuis 503; format: toxicity; conditions: human red blood cells (RBC), read-out: TI
[10] = Therapeutic index, ratio of MHC for human RBC to geometric mean of peptide MIC for Escherichia coli UB1005; format: toxicity; conditions: human red blood cells (RBC), read-out: TI
[11] = Therapeutic index, ratio of MHC for human RBC to geometric mean of peptide MIC for Salmonella typhimurium 14028; format: toxicity; conditions: human red blood cells (RBC), read-out: TI
[12] = Therapeutic index, ratio of MHC for human RBC to geometric mean of peptide MIC for Escherichia coli ATCC 25922; format: toxicity; conditions: human red blood cells (RBC), read-out: TI
[13] = test system: Staphylococcus aureus; test: Antibacterial activity against Staphylococcus aureus ATCC 29213 after 18 to 24 hrs by CLSI-based broth microdilution method; format: functional; conditions: time hrs 18-24
[14] = test system: Staphylococcus aureus; test: Antibacterial activity against Staphylococcus aureus 11011 after 18 to 24 hrs by CLSI-based broth microdilution method; format: functional; conditions: time hrs 18-24
[15] = test system: Escherichia coli; test: Antibacterial activity against Escherichia coli ATCC 25922 after 18 to 24 hrs by CLSI-based broth microdilution method; format: functional; conditions: time hrs 18-24
[16] = test system: Escherichia coli; test: Antibacterial activity against Escherichia coli UB1005 after 18 to 24 hrs by CLSI-based broth microdilution method; format: functional; conditions: time hrs 18-24
[17] = test system: Salmonella typhimurium; test: Antibacterial activity against Salmonella typhimurium 14028 after 18 to 24 hrs by CLSI-based broth microdilution method; format: functional, Salmonella enterica subsp. enterica serovar Typhimurium; conditions: Salmonella enterica, time hrs 18-24
[18] = test system: Salmonella typhimurium; test: Antibacterial activity against Salmonella typhimurium 7731 after 18 to 24 hrs by CLSI-based broth microdilution method; format: functional, Salmonella enterica subsp. enterica serovar Typhimurium; conditions: Salmonella enterica, time hrs 18-24
[19] = Antibacterial activity against Salmonella pullorum 7913 after 18 to 24 hrs by CLSI-based broth microdilution method; format: functional, Salmonella enterica subsp. enterica serovar Pullorum; conditions: Salmonella enterica, time hrs 18-24
[20] = test system: Salmonella enterica; test: Antibacterial activity against Salmonella choleraesuis 503 after 18 to 24 hrs by CLSI-based broth microdilution method; format: functional; conditions: time hrs 18-24
[21] = test system: Staphylococcus epidermidis; test: Antibacterial activity against Staphylococcus epidermidis ATCC 12228 after 18 to 24 hrs by CLSI-based broth microdilution method; format: functional; conditions: time hrs 18-24
[22] = test system: Enterococcus faecalis; test: Antibacterial activity against Enterococcus faecalis ATCC 29212 after 18 to 24 hrs by CLSI-based broth microdilution method; format: functional; conditions: time hrs 18-24
[23] = test system: Staphylococcus aureus; test: Antibacterial activity against methicillin-resistant Staphylococcus aureus 43300 after 18 to 24 hrs by CLSI-based broth microdilution method; format: functional; conditions: time hrs 18-24
[24] = test system: Streptococcus agalactiae; test: Antibacterial activity against Streptococcus agalactiae H92 after 18 to 24 hrs by CLSI-based broth microdilution method; format: functional; conditions: time hrs 18-24
[25] = test system: Erythrocyte; test: Hemolytic activity in human RBC assessed as hemolysis; format: ADME, cell-based
[26] = Hemolytic activity in human RBC assessed as hemolysis at 1 to 128 uM relative to control; format: ADME, cell-based, Erythrocyte; conditions: human red blood cells (RBC), dose 1-128 µM, read-out: Activity
[27] = Cytotoxicity against mouse RAW264.7 cells assessed as cell viability at 128 uM by MTT assay relative to control; format: cell-based; conditions: read-out: Activity
[28] = Cytotoxicity against HEK-293T cells assessed as cell viability at 128 uM by MTT assay relative to control; format: cell-based; conditions: human, read-out: Activity

Which results are given for CC[C@H](C)[C@H](N)C(=O)N[C@@H](CS)C(=O)N[C@@H](CCCNC(=N)N)C(=O)N[C@@H](CCCCN)C(=O)N1CCC[C@H]1C(=O)N[C@H](C(=O)N[C@H](C(=O)N[C@@H](CS)C(=O)N[C@@H](CCCNC(=N)N)C(=O)N[C@@H](CCCCN)C(=O)N1CCC[C@H]1C(=O)N[C@H](C(N)=O)[C@@H](C)CC)[C@@H](C)CC)[C@@H](C)CC (H-ICRKPIICRKPI-NH2)?
selectivity ratio [1]: 2; selectivity ratio [2]: 2; selectivity ratio [3]: 2; selectivity ratio [4]: 2; selectivity ratio [5]: 2; selectivity ratio [6]: 2; selectivity ratio [7]: 2; selectivity ratio [8]: 2; selectivity ratio [9]: 2; selectivity ratio [10]: 2; selectivity ratio [11]: 2; selectivity ratio [12]: 2; MIC [13]: > 64 µM; MIC [14]: > 64 µM; MIC [15]: 64 µM (≈ 92.1 µg/mL); MIC [16]: > 64 µM; MIC [17]: > 64 µM; MIC [18]: > 64 µM; MIC [19]: > 64 µM; MIC [20]: > 64 µM; MIC [21]: > 64 µM; MIC [22]: > 64 µM; MIC [23]: > 64 µM; MIC [24]: > 64 µM; MHC [25]: > 128 µM; hemolysis at up to 128 µM [26]: < 5%; viability at 128 µM [27]: > 90%; viability at 128 µM [28]: > 90%

With CC[C@H](C)[C@H](N)C(=O)N[C@@H](CS)C(=O)N[C@@H](CCCNC(=N)N)C(=O)N[C@@H](CCCCN)C(=O)N1CCC[C@H]1C(=O)N[C@H](C(=O)N[C@H](C(=O)N[C@@H](CS)C(=O)N[C@@H](CCCNC(=N)N)C(=O)N[C@@H](CCCCN)C(=O)N1CCC[C@H]1C(=O)N[C@H](C(=O)N[C@H](C(=O)N[C@@H](CS)C(=O)N[C@@H](CCCNC(=N)N)C(=O)N[C@@H](CCCCN)C(=O)N1CCC[C@H]1C(=O)N[C@H](C(N)=O)[C@@H](C)CC)[C@@H](C)CC)[C@@H](C)CC)[C@@H](C)CC)[C@@H](C)CC (H-ICRKPIICRKPIICRKPI-NH2) as the molecule, how does the selectivity ratio [1] read?
The selectivity ratio was 2.

And the selectivity ratio [2]?
Its selectivity ratio is 2.

What about the selectivity ratio [3] of the same molecule?
Its selectivity ratio is 2.

And the selectivity ratio [4]?
The selectivity ratio was 2.

And the selectivity ratio [5]?
Its selectivity ratio is 2.

And the selectivity ratio [6]?
The selectivity ratio was 2.

And the selectivity ratio [7]?
Its selectivity ratio is 11.3.

And the selectivity ratio [8]?
The selectivity ratio was 11.3.

What about the selectivity ratio [9] of the same molecule?
Its selectivity ratio is 11.3.

And the selectivity ratio [10]?
The selectivity ratio was 11.3.

And the selectivity ratio [11]?
Its selectivity ratio is 11.3.

And the selectivity ratio [12]?
The selectivity ratio was 11.3.

And the MIC [13]?
The MIC was greater than 64 µM.

What about the MIC [14] of the same molecule?
Its MIC is greater than 64 µM.

What about the MIC [15] of the same molecule?
The MIC was 8 µM (≈ 17.2 µg/mL).

And the MIC [16]?
The MIC was 4 µM (≈ 8.6 µg/mL).

What about the MIC [17] of the same molecule?
Its MIC is 8 µM (≈ 17.2 µg/mL).

And the MIC [18]?
Its MIC is 8 µM (≈ 17.2 µg/mL).

And the MIC [19]?
Its MIC is 64 µM (≈ 138 µg/mL).

What about the MIC [20] of the same molecule?
Its MIC is 16 µM (≈ 34.4 µg/mL).

What about the MIC [21] of the same molecule?
Its MIC is greater than 64 µM.

What about the MIC [22] of the same molecule?
Its MIC is greater than 64 µM.

And the MIC [23]?
Its MIC is greater than 64 µM.

What about the MIC [24] of the same molecule?
The MIC was greater than 64 µM.

What about the MHC [25] of the same molecule?
The MHC was greater than 128 µM.

What about the hemolysis at up to 128 µM [26] of the same molecule?
Its hemolysis at up to 128 µM is less than 5%.

And the viability at 128 µM [27]?
The viability at 128 µM was greater than 90%.

What about the viability at 128 µM [28] of the same molecule?
Its viability at 128 µM is greater than 90%.
